The record followed here is patent publication US9403808B2, “Pyrazine derivatives” (Hoffmann-La Roche Inc., priority 2011, dated 2016).

One assay addresses human CB1 receptors (Homo sapiens (Human), UniProt P21554). The assay can be described thus: functional cAMP assay, CB1. It is filed as cell-based. The note with it: functional cAMP assay, CHO cells expressing human CB1; read-out: human CB1 EC50. In a few lines: (§1)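 CHO cells expressing human CB1 or CB2 were preincubated 30 min at 30 °C in Krebs Ringer bicarbonate buffer with 1 mM IBMX, then exposed to compound for 30 min at 30 °C. cAMP was measured by TR-FRET (cAMP-Nano-TRF) against a 10 μM–0.13 nM cAMP standard curve, and EC50 values were derived.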
Background: Changes in cAMP serve as a functional read-out for many G protein-coupled receptors.

The next assay addresses human CB2 receptors (Homo sapiens (Human), UniProt P34972). The assay can be described thus: functional cAMP assay, CB2. It is filed as cell-based. The note with it: functional cAMP assay, CHO cells expressing human CB2; read-out: human CB2 EC50. The procedure, abridged: as §1

Bounds are passed on as bounds.

Sequence of human CB2 receptors (P34972 whole entry): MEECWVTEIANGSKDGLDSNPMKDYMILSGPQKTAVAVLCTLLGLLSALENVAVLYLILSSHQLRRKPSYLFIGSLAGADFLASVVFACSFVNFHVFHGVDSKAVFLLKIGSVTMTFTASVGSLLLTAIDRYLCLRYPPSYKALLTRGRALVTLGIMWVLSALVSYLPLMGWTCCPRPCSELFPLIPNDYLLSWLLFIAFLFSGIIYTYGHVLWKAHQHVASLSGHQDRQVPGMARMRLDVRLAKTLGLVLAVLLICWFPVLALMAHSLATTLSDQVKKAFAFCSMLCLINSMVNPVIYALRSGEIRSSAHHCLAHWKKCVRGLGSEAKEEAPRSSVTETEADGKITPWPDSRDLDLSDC
Sequence of human CB1 receptors (P21554 whole entry): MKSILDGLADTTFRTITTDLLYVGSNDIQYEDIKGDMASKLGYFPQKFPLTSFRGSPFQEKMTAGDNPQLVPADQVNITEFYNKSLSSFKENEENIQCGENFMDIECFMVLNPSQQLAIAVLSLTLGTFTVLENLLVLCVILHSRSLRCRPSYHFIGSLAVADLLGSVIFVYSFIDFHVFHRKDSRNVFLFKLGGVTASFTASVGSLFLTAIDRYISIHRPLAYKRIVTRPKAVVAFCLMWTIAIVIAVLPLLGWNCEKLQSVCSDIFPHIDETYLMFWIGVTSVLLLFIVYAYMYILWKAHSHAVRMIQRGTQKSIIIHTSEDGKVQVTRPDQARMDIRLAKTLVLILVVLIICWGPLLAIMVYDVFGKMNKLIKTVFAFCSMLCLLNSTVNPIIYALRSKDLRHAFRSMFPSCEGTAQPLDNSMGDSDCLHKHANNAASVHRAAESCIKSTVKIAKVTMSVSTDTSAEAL

A word on the EC50: it is the midpoint of the concentration-response curve. With `O=C(NC(CO)CC1CCC1)c1cnc(C2CC2)c(OCC2CC2)n1` (stereo not drawn) [Example 105, 5-Cyclopropyl-6-cyclopropylmethoxy-pyrazine-2-carboxylic acid (1-cyclobutylmethyl-2-hydroxy-ethyl)-amide], the EC50 was > 10 µM on human CB1 receptors and 37 nM on human CB2 receptors.
Take `CC(C)(CC(N)=O)NC(=O)c1cnc(C2CC2)c(OCC2CC2)n1` [Example 106]: the EC50 was > 10 µM on human CB1 receptors and 43.2 nM on human CB2 receptors.
For `CC(C)(CC(N)=O)NC(=O)c1cnc(N2CC(F)(F)C2)c(OCC2CC2)n1` [Example 107, 6-Cyclopropylmethoxy-5-(3,3-difluoro-azetidin-1-yl)-pyrazine-2-carboxylic acid (2-carbamoyl-1,1-dimethyl-ethyl)-amide], the EC50 at human CB1 receptors came out at 0.874 µM; at human CB2 receptors it was 11.8 nM.
